According to patent US7863033B2, “Lactobacillus living body activating Lactobacillus preparation and preventive or therapeutic agent for living body infection” (BHPH Company Limited, priority 2003, dated 2011):
Where two headings read alike, the source gives them in different places.

How the values were obtained:
[1] = system: mouse skin wound; test: Recovery of mouse skin wounds with bactericidal disinfectants (Test Example 5); format: in vivo
[2] = system: bacteria in plaque; test: Live cell counts in plaque soaked in disinfectant (Test Example 4); format: cell-based; details: 60 minutes of immersion
[3] = system: acute colitis patients; test: Treatment of acute infection patients (Example 15, Comparative Example 1); details: method A: Cefaclor alone 1000 mg/day for 5 days
[4] = system: acute bronchitis patients; details: method A: Cefaclor alone; cited from earlier work
[5] = system: acute cystitis patients; details: method A: Cephalexin alone; cited from earlier work
[6] = system: conjunctivitis patients; test: Treatment of acute infection patients (Example 15, Comparative Example 1); details: epidemic conjunctivitis; method A: Ofloxacin alone
[7] = system: acute cystitis patients; test: as above; details: method A: minocycline alone 1000 mg/day for 5 days
[8] = applied every morning and night

CC(O)C(=O)O.CCOc1ccc2nc3cc(N)ccc3c(N)c2c1 [Acrinol]
Recovery: Complete recovery (coat regrown) [1, 8]: 40 days | Recovery: Skin close to original thickness [1, 8]: 15 days | Recovery: Thin skin overall ([1]; applied every morning and night to about 1 cm^2 peeled mouse skin): 5 days | survival of bacteria inside the plaque [2]: half of the cells surviving

N[C@@H](C(=O)N[C@@H]1C(=O)N2C(C(=O)O)=C(Cl)CS[C@H]12)c1ccccc1 [Cefaclor]
Upset of intestinal flora [3]: ++ | Upset of intestinal flora [4]: ++

CC1=C(C(=O)O)N2C(=O)[C@@H](NC(=O)[C@H](N)c3ccccc3)[C@H]2SC1 [Cephalexin]
Upset of intestinal flora [5]: ++

CC1COc2c(N3CCN(C)CC3)c(F)cc3c(=O)c(C(=O)O)cn1c23 (stereo not drawn) [Ofloxacin]
Upset of intestinal flora [6]: −

CN(C)c1ccc(O)c2c1C[C@H]1C[C@H]3[C@H](N(C)C)C(O)=C(C(N)=O)C(=O)[C@@]3(O)C(O)=C1C2=O [minocycline]
Upset of intestinal flora [7]: ++
